In publication PMC12077488 (Science signaling, 2025):

How the values were obtained:
DOR = details: cited from earlier work
GABABR = details: HEK293T cells expressing GABABR, GINIP-Nluc and YFP-CAAX
Gαi = Gαi (UniProt P08753); details: cited from earlier work
[1] = tested on: endogenous adenosine receptors (A1 purinergic receptors); experiment: Gαi bONE-GO kinetic BRET in primary mouse cortical astroglial cells; assay type: cell-based; details: lentiviral Gαi bONE-GO, N=3

GINIP, sequence (Q9UPV7 2-400): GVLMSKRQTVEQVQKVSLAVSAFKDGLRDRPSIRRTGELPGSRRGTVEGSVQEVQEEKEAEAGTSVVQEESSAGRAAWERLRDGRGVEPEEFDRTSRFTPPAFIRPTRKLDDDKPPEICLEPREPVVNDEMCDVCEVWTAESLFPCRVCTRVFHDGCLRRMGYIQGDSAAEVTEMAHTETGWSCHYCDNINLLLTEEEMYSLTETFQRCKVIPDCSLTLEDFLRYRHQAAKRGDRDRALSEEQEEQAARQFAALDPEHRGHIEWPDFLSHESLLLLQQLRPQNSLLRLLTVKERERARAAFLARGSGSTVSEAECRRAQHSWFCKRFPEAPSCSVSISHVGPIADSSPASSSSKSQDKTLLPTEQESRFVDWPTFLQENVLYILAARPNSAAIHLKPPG
Gαi, sequence (P08753 2-354): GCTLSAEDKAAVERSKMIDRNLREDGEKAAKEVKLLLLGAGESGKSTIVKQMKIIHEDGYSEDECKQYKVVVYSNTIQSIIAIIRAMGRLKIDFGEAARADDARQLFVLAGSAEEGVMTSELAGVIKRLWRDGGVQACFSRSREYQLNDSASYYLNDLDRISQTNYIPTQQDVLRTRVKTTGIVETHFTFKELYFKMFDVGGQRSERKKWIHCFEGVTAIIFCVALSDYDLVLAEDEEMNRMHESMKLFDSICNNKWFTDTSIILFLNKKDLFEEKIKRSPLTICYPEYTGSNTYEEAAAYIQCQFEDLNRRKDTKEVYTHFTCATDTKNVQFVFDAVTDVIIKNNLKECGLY

## Endomorphin-2
DOR
  agonist efficacy annotation for DOR in the IUPHAR database: lack of annotation

## CGP54626
GABABR
  reversal of the GABA-induced BRET response by antagonist: rapidly reverted

## GINIP (from UniProt Q9UPV7)
Gαi
  Kd: 65 nM

## Nc1ncnc2c1ncn2[C@@H]1O[C@H](CO)[C@@H](O)[C@H]1O [adenosine]
[1]
  BRET response (endogenous Gαi activation) to adenosine: robust and concentration-dependent responses

## Endomorphin-1
DOR
  DOR activity according to the source reference of the IUPHAR annotation: inactive
  agonist efficacy annotation for DOR in the IUPHAR database: full agonist
